Measured values published in patent publication US20140357688A1, “METHOD FOR INHIBITING EZH2 EXPRESSION IN BREAST CANCER CELLS” (Yung Shin Pharm. Ind. Co., Ltd., priority 2013, published 2014).

Columns and labels:
[1] = system: MDA-MB-468; experiment: MTT cell viability assay; type: cell-based, human; settings: inhibitor pretreatment, then 3 μM YC-1 for 6 h
Description: (A) Cells were treated with indicated concentration of YC-1 for 6, 24, and 48 h. Cell viability was determined by MTT method. (B) MDA-MB-468 cells were treated with 3 μM YC-1 for 0, 6, and 12 h, and then stained with fluorescence diacetate (FDA) and propidium iodide (PI). Cell morphology was assessed by fluorescence microscopy with magnification ×20 (upper 3 rows) or ×40 (lowest row). (C) MDA-MB-468 cells were treated with 3 μM YC-1 for 24 h, cells were lysed and subjected to western blot analysis described in Materials and Methods. β-actin is a loading control. Blots were representative of results from three independent experiments. (D) Cells were treated with vehicle (DMSO, as control) or 3 μM YC-1 for 6 h. The cell cycles were analyzed by flow cytometry. (E) Cells were treated with indicated concentration of YC-1 and then performed with clonogenic assay.
Human breast cancer cells, MDA-MB-468, MDA-MB-157, MDA-MB-231, MDA-MB-453, and Hs578T, and immortalized mammary epithelial cell lines, 184A1 and MCF-10A, were obtained from American Type Culture Collection (Manassas, Va., USA). MDA-MB-468, MDA-MB-157, MDA-MB-231, and MDA-MB-453 were cultured in DMEM/F12 medium supplemented with 10% FBS, 100 U/ml penicillin, and 100 μg/ml streptomycin. Hs578T was cultured in RPMI 1640 medium containing 10% FBS, 2 mM L-glutamine, 100 U/ml penicillin, and 100 μg/ml streptomycin. 184A1 and MCF-10A were cultured in DMEM/F12 medium supplemented with 5% horse serum, 0.5 μg/ml hydrocortisone, 10 μg/ml insulin, 20 ng/ml epidermal growth factor, 0.1 μg/ml cholera enterotoxin, 2 mM L-glutamine, 100 U/ml penicillin, and 100 μg/ml streptomycin. All cells were maintained in a humidified incubator containing 5% CO2. For hypoxia treatment, cells were incubated in a chamber flushed with 1% 02, 5% CO2, and 94% N2 at 37° C.
Cell viability was measured by 3-(4,5-Dimethyl-2-thiazolyl)2,5-diphenyl-2H-tetrazolium bromide (MTT) assay.

[2] = system: EZH2; experiment: Western blot of EZH2 protein expression in MDA-MB-468 cells; type: cell-based, human; settings: inhibitor pretreatment, then 3 μM YC-1 for 6 h
Description: Cells were harvested and performed with western blotting analysis. […] The levels of protein expression were quantitated and shown under blots. (C) Cells were transfected with EZH2 shRNA for 0, 1, 2, 3, and 4 days and collected for determination of cell viability (left) and protein expression (right). (D)(E) After 4 days of EZH2 knockdown, cells were incubated with 3 μM YC-1 for 4 h and detected cell viability (D) and protein contents (E). (F) Tumor specimens were isolated and protein was extracted for western blot analysis.
Cells were lysed in PBS containing proteinase inhibitor and phosphatase inhibitors and sonication. Protein concentration was measured using the Bio-Rad protein assay kit (Bio-Rad Laboratories, Hercules, Calif., USA). Lysate protein was separated by electrophoresis of SDS-PAGE and transferred to Immobilon P membrane (EMD Millipore). The membranes were incubated with appropriate primary antibodies and horseradish peroxidase-conjugated secondary antibodies (EMD Millipore). The signaling was visualized using Chemiluminescence substrate kit (EMD Millipore) and collected by the Luminesence image analyzer, LAS4000 (Fuji Photo Film Co., Tokyo, Japan). The band intensities were analyzed and quantified by the Multi Gauge software (Fuji Photo Film).

[3] = system: EZH2; experiment: EZH2 ubiquitination assay; type: cell-based, human; settings: inhibitor pretreatment, then 3 μM YC-1
Description: (A) Cells were pretreated with cyclohexamide (30 μM) for 1 h and followed by induction with vehicle (DMSO) or YC-1 (3 μM) for indicated time. Cells were harvested for detection of protein expression. (B)(C) Cells were incubated with 3 μM YC-1 for 6 h in the presence of vehicle, 3 μM MG-132 or 30 μM NH4Cl. Cells were harvested for detection of protein expression (B) or cell viability assay (C). The levels of protein expression were quantitated and shown under blots. (D) After treatment of 3 μM YC-1 for indicated time, cells were harvested and lysed for immunoprecipitation and western blot analysis described in Materials and Methods.
Cells were lysed with MLB buffer (25 mM HEPES, pH 7.5, 150 mM NaCl, 1% Igepal CA-630, 10 mM MgCl2, 1 mM EDTA, 2% glycerol, 1 mM Na3VO4, 1 mM NaF, 1 mM PMSF, 10 μg/ml of leupeptin, aprotinin, and pepstatin A). After sonication, cell lysates were centrifugated at 12,000×g for 10 min at 4° C. Supernatants were incubated with anti-EZH2 antibody (BD Biosciences) and protein A Sepharose beads (GE Health Care) overnight at 4° C. After washing with MLB buffer, precipitated proteins were boiled in 1× Laemmli sample buffer and then separated with SDS-PAGE. The ubiquitination levels of EZH2 were recognized by using anti-Ubiquitn monoclonal antibody.

[4] = system: ERK; experiment: Western blot of ERK phosphorylation in MDA-MB-468 cells; type: cell-based, human; settings: 3 μM YC-1 for 6 h in the presence of inhibitor
Description: (A) Cells were pretreated with KT5720 (3 μM), KT5823 (3 μM), NS2028 (30 μM), or ODQ (30 μM) and then stimulated with YC-1 (3 μM) for 6 h. Cells were collected for measurement of protein expression (left) or cell viability (middle). After 3 days of PKA knockdown, cells were induced with 3 μM YC-1 for 4 h. Cells were harvested and analyzed using western blotting (right). The levels of protein expression were quantitated and shown under blots. […] Cells were collected and analyzed protein expression (left) and cells viability (middle). p44/42 MAPK knockdown cells were treated with 3 μM YC-1 for 4 h and then detected protein expression (left). (C) Cells were treated with 3 μM YC-1 for indicated time. Cells were harvested for detection of protein phosphorylated activation. […] Six hours later, cells were harvested for EZH2 ubiquitination assay. (E) Cells were induced by 3 μM YC-1 for 6 h in the presence of PD98059 or KT5720. Cells were collected for the determination of ERK phosphorylation. Cells were lysed in PBS containing proteinase inhibitor and phosphatase inhibitors and sonication. Protein concentration was measured using the Bio-Rad protein assay kit (Bio-Rad Laboratories, Hercules, Calif., USA). […] The band intensities were analyzed and quantified by the Multi Gauge software (Fuji Photo Film).

[5] = system: MDA-MB-468 xenograft; experiment: MDA-MB-468 breast cancer xenograft animal model; type: in vivo, Nu/Nu mice
Description: MDA-MB-468 cells were used to inoculate Nu/Nu mice. (A, left) Tumor bearing mice were given vehicle (10 μl DMSO, CTL) or YC-1 (30 and 60 mg/kg/day) by ip treatment. (B, right) Tumor bearing mice were given vehicle (normal saline, CTL) or YC-1-succinate (YC-1-S; 20, 40, and 80 mg/kg/day) by oral administration. During treatment period, tumor volume and body weights of mice were measured once per 3 days. Data are expressed as mean of tumor volume (mm^3)±S.E.M. from 6 mice (YC-1 treatment) or 10 mice (YC-1-S treatment). Tumor weights (B) and body weights of mice (C) in control and YC-1/YC-1-S-treated groups were recorded.
Nu/Nu female mice (four weeks old) were from National Laboratory Animal Center, Taipei, Taiwan. Mice were maintained under procedures and guidelines from the Institutional Animal Care and Use of the National Health Research Institutes. MDA-MB-468 breast cancer cells (5×10^6 cells per mouse) were suspended in 0.1 ml of Matrigel solution (50%, v/v, Matrigel in 1×PBS) and inoculated into the mammary fat pads of nude mice. When the tumor masses reached to 100 mm^3, the tumor bearing mice were randomly divided into different groups for different dosage of YC-1 treatments. The mice were given by intraperitoneal injection with YC-1 or oral administration of YC-1-succinate. Tumor size and body weights of mice were measured once per 3 days and tumor volume (mm^3) was calculated as the equation: length×[…]. At the end of experiments, mice were sacrificed and tumor nodules were dissected and weighted. Tumor tissues were subjected to western blot analysis.

[6] = In vivo pharmacokinetic analysis

Compound: CCCCCCOC(=O)[C@]1(O)C[C@@H]2O[C@@]1(C)n1c3ccccc3c3c4c(c5c6ccccc6n2c5c31)C(=O)NC4 [KT5720]
- effect of inhibitor on YC-1-induced inhibition of cell viability [1]: significantly reversed
- effect of inhibitor on YC-1-induced EZH2 inhibition [2]: significantly reversed
- effect of inhibitor on YC-1-induced EZH2 ubiquitination [3]: could be blocked
- effect of inhibitor on ERK phosphorylation [4]: did not affect ERK phosphorylation

Compound: O=C(O)CCC(=O)OCc1ccc(-c2nn(Cc3ccccc3)c3ccccc23)o1 [YC-1-succinate, succinic acid mono-[5-(1-benzyl-1H-indazol-3-yl)-furan-2-ylmethyl]ester]
- tumor growth ([5]; 20, 40, and 80 mg/kg orally): dose-dependent inhibition
- body weights of mice ([5]; 20, 40, and 80 mg/kg/day oral): not affected
- tumor weight ([5]; 20, 40, and 80 mg/kg/day oral): dose-dependently reduced tumor weight
- conversion of prodrug into active form [6]: quickly converted into its active form
